The term IC50 denotes the midpoint of a concentration-inhibition curve.

From ChEMBL document CHEMBL1150849, “Antiprotozoal activity of the constituents of Conyza filaginoides” (J Nat Prod, 2001) come the findings set out here.

Converted amounts (≈) assume the structure as drawn.

Assay [1] relates to Entamoeba histolytica. Nature of the assay: Antiprotozoal activity against Entamoeba histolytica HM-1:IMSS trophozoites after 48 hrs by MTT/PMS assay. The assay is classed as functional, organism-based.
Assay [2] has as its system Giardia intestinalis. Nature of the assay: Antiprotozoal activity against Giardia lamblia IMSS:0989:1 after 48 hrs by MTT/PMS assay. The note with it: Giardia duodenalis, IMSS:0989:1, 48 h. It counts as functional, organism-based.

In the case of `CC[C@H]1CN2CCc3cc(OC)c(OC)cc3[C@@H]2C[C@@H]1C[C@H]1NCCc2cc(OC)c(OC)cc21` [EMETINE], the results for the IC50 in assay [1] and in assay [2] were 1.05 µg/mL (≈ 2.18 µM) and 0.41 µg/mL (≈ 0.853 µM), respectively.
In the same order, the values of `O=C(/C=C/c1ccc(O)c(O)c1)OC[C@H]1O[C@@H](Oc2c(-c3ccc(O)cc3)oc3cc(O)cc(O)c3c2=O)[C@H](O)[C@@H](O)[C@H]1O` are 30 µg/mL (≈ 49.1 µM) and 47 µg/mL (≈ 77 µM).
In the same order, the values of `C[C@@H]1O[C@@H](OC[C@H]2O[C@@H](Oc3c(-c4ccc(O)c(O)c4)oc4cc(O)cc(O)c4c3=O)[C@H](O)[C@@H](O)[C@@H]2O)[C@H](O)[C@H](O)[C@H]1O` [RUTIN] are 120 µg/mL (≈ 196 µM) and 179 µg/mL (≈ 293 µM).
In the same order, the values of `C=C1CC[C@H]2O[C@@]2(C)CC[C@@H]2[C@@H]1CC2(C)C` are 71.3 µg/mL (≈ 324 µM) and 53.8 µg/mL (≈ 244 µM).
Regarding `COc1cc(-c2oc3cc(O)cc(O)c3c(=O)c2O[C@@H]2O[C@H](COC(=O)/C=C/c3ccc(O)c(O)c3)[C@H](O)[C@H](O)[C@H]2O)ccc1O`, the IC50 in assay [1] turned out to be 47.7 µg/mL (≈ 74.5 µM); in assay [2], 15.3 µg/mL (≈ 23.9 µM).
In the same order, the values of `O=C(/C=C/c1ccc(O)c(O)c1)OC[C@H]1O[C@@H](Oc2c(-c3ccc(O)c(O)c3)oc3cc(O)cc(O)c3c2=O)[C@H](O)[C@@H](O)[C@@H]1O` are 14 µg/mL (≈ 22.3 µM) and 105 µg/mL (≈ 167 µM).
In the same order, the values of `CC1(C)CC[C@]2(CO)CC[C@]3(C)C(=CC[C@@H]4[C@@]5(C)CC[C@H](O)C(C)(C)[C@@H]5CC[C@]43C)[C@@H]2C1` [ERYTHRODIOL] are 12.7 µg/mL (≈ 28.7 µM) and 29.9 µg/mL (≈ 67.5 µM).
The like results for `O=c1c(O[C@@H]2O[C@H](CO)[C@@H](O)[C@H](O)[C@H]2O)c(-c2ccc(O)cc2)oc2cc(O)cc(O)c12` [ASTRAGALIN] were, in that order, 61.2 µg/mL (≈ 136 µM) and 47.5 µg/mL (≈ 106 µM).
Consider `COc1cc(-c2oc3cc(O)cc(O)c3c(=O)c2O[C@@H]2O[C@H](CO[C@@H]3O[C@@H](C)[C@H](O)[C@@H](O)[C@H]3O)[C@@H](O)[C@H](O)[C@H]2O)ccc1O` [NARCISSIN], for which the IC50 in assay [1] stood at 17.2 µg/mL (≈ 27.5 µM); in assay [2], 94.7 µg/mL (≈ 152 µM).
In the case of `C[C@@H]1O[C@@H](OC[C@H]2O[C@@H](Oc3c(-c4ccc(O)cc4)oc4cc(O)cc(O)c4c3=O)[C@H](O)[C@@H](O)[C@@H]2O)[C@H](O)[C@H](O)[C@H]1O` [NICOTIFLOROSIDE], the half-maximal inhibitory concentration (IC50) came out at 30.9 µg/mL (≈ 52 µM) in assay [1] and 22.5 µg/mL (≈ 37.8 µM) in assay [2].
In the same order, the values of `O=c1c(O[C@@H]2O[C@H](CO)[C@@H](O)[C@H](O)[C@H]2O)c(-c2ccc(O)c(O)c2)oc2cc(O)cc(O)c12` [ISOQUERCETIN] are 14.7 µg/mL (≈ 31.7 µM) and 87.3 µg/mL (≈ 188 µM).
